Converted amounts (≈) assume the structure as drawn.

One test relates to T. cruzi Tulahuen strain C2C4. Nature of the test: Activity against T. cruzi (beta-galactosidase expressing parasites in L-6 cells). It is filed as cell-based, Trypanosoma cruzi. The note with it: Trypanosoma cruzi, TULAHUEN, L6, Benznidazole used as control, same assay; read-out: IC50 of control. As to the method:
Activity against T. cruzi. Rat skeletal myoblasts (L-6 cells) were seeded in 96-well microtitre plates at 2000 cells/well in 100 μL RPMI 1640 medium with 10% FBS and 2 mM 1-glutamine. After 24 h the medium was removed and replaced by 100 μl per well containing 5000 trypomastigote forms of T. cruzi Tulahuen strain C2C4 containing the […] (Lac Z) gene (Buckner et al. 1996). After 48 h the medium was removed from the wells and replaced by 100 μl fresh medium with or without a serial drug dilution of eleven 3-fold dilution steps covering a range from 100 to 0.002 μg/ml. After 96 h of incubation the plates were inspected under an inverted microscope to assure growth of the controls and sterility. Then the substrate CPRG/Nonidet (50 μl) was added to all wells. A color reaction developed within 2-6 h and could be read photometrically at 540 nm. Data were analyzed with the graphic programme Softmax Pro (Molecular Devices), which calculated IC50 values by linear regression (Huber 1993) from the sigmoidal dose inhibition curves. Benznidazole is used as control (IC50 0.5±0.2 ug/ml). • Buckner, F. S., C. L. Verlinde, A. C. La Flamme, and W. C. Van Voorhis. 1996. Efficient technique for screening drugs for activity against Trypanosoma cruzi using parasites expressing beta-galactosidase, p. 2592-2597, vol. 40. • Huber, W. Koella, J. C. 1993. A comparison of the three methods of estimating EC50 in studies of drug resistance of malaria parasites. Acta Trop. 55, 257-261.
As usually defined, the IC50 is the concentration at which inhibition is half-maximal. Take `O=C(Cn1ccnc1[N+](=O)[O-])NCc1ccccc1` [Benznidazole, reference compound]: the IC50 turned out to be 0.5 ± 0.2 µg/mL (≈ 1.92 µM).

The test is the same for the next values; noted with them: Trypanosoma cruzi, TULAHUEN, L6, in Rattus norvegicus, 96 h, trypomastigotes in rat skeletal myoblasts (L-6 cells), 96 h incubation, CPRG/Nonidet read at 540 nm; read-out: Activity (IC50).
`CC(C)(C)C(=O)Nc1ccc2[nH]c(=O)n(CCC3CCCCC3)c(=O)c2c1` [Example 15b, N-(3-(2-cyclohexylethyl)-2,4-dioxo-1,2,3,4-tetrahydroquinazolin-6-yl)pivalamide]: the IC50 stood at 2.64 µg/mL (≈ 7.11 µM).

On to `CC(=O)Nc1ccc2[nH]c(=O)n([C@H](C)C3CCCCC3)c(=O)c2c1` [Example 2, (R)—N-(3-(1-cyclohexylethyl)-2,4-dioxo-1,2,3,4-tetrahydroquinazolin-6-yl)acetamide], for which the IC50 turned out to be 0.724 µg/mL (≈ 2.2 µM). Regarding `CC(C)(C)C1CCC(n2c(=O)[nH]c3ccc(N)cc3c2=O)CC1` (racemic) [23b (rac), 6-amino-3-(4-tert-butyl-cyclohexyl)-1H-quinazoline-2,4-dione], the IC50 is 0.028 µg/mL (≈ 0.0888 µM).

As for `CC(=O)Nc1ccc2[nH]c(=O)n(CCC(C)C)c(=O)c2c1` [Example 4, N-(3-Isopentyl-2,4-dioxo-1,2,3,4-tetrahydroquinazolin-6-yl)acetamide], the IC50 amounted to 2.81 µg/mL (≈ 9.71 µM).

For the compound `CC(=O)Nc1ccc2[nH]c(=O)n(CCC3=CCCCC3)c(=O)c2c1` [Example 1c, N-[3-(2-Cyclohex-1-enyl-ethyl)-2,4-dioxo-1,2,3,4-tetrahydro-quinazolin-6-yl]-acetamide], the IC50 is 0.692 µg/mL (≈ 2.11 µM). The same measure, in the same setting: the same measure for `CC(=O)Nc1ccc2[nH]c(=O)n([C@H]3CC[C@H](C(C)C)CC3)c(=O)c2c1` [Example 48, N-(3-((1r,4r)-4-Isopropylcyclohexyl)-2,4-dioxo-1,2,3,4-tetrahydroquinazolin-6-yl)acelamide]: 0.018 µg/mL (≈ 0.0524 µM); for `CC(=O)Nc1ccc2[nH]c(=O)n([C@H]3CC[C@@H](C(C)(C)C)CC3)c(=O)c2c1` [Example 50, N-(3-((1s,4s)-4-(Tert-butyl)cyclohexyl)-2,4-dioxo-1,2,3,4-tetrahydroquinazolin-6-yl)acetamide]: 0.005 µg/mL (≈ 0.014 µM); for `CC(=O)Nc1ccc2[nH]c(=O)n(CCC3CCCCC3)c(=O)c2c1` [Example 3, N-[3-(2-Cyclohexylethyl)-2,4-dioxo-1,2,3,4-tetrahydroquinazolin-6-yl]acetamide]: 0.162 µg/mL (≈ 0.492 µM). On the same count and under the same terms, then `CC(=O)N(C)c1ccc2c(c1)c(=O)n(CCC1CCCCC1)c(=O)n2C` [Example 11, N-(3-(2-cyclohexylethyl)-1-methyl-2,4-dioxo-1,2,3,4-tetrahydroquinazolin-6-yl)-N-methylacetamide], with 6.44 µg/mL (≈ 18 µM).

`CC(=O)Nc1ccc2[nH]c(=O)n(C3CCC(C)CC3)c(=O)c2c1` (stereo not shown) [Example 59, N-(3-(4-methylcyclohexyl)-2,4-dioxo-1,2,3,4-tetrahydroquinazolin-6-yl)acetamide]: the IC50 was 0.329 µg/mL (≈ 1.04 µM). `CCC1CCC(n2c(=O)[nH]c3ncc(NC(C)=O)cc3c2=O)CC1` (stereo not drawn) [Example 35, N-[3-(trans-4-ethyl-cyclohexyl)-2,4-dioxo-1,2,3,4-tetrahydro-pyrido[2,3-d]pyhmidin-6-yl]-acetamide]: the IC50 was determined as 0.1 µg/mL (≈ 0.303 µM). The same measure, in the same setting: the same measure for `CC(=O)Nc1ccc2[nH]c(=O)n(CCCC3CCCCC3)c(=O)c2c1` [Example 5, N-[3-(3-Cyclohexyl-propyl)-2,4-dioxo-1,2,3,4-tetrahydro-quinazolin-6-yl]-acetamide]: 0.163 µg/mL (≈ 0.475 µM); for `Nc1ccc2[nH]c(=O)n(CCC3CCCCC3)c(=O)c2c1` [Example 9, 6-Amino-3-(2-cyclohexylethyl)quinazoline-2,4(1H,3H)-dione]: 0.339 µg/mL (≈ 1.18 µM); for `CC(C)(C)C1CCC(n2c(=O)[nH]c3ccc(-c4ccncc4)cc3c2=O)CC1` (stereo not shown) [Example 21c, 3-(4-(tert-butyl)cyclohexyl)-6-(pyridin-4-yl)quinazoline-2,4(1H,3H)-dione]: 0.892 µg/mL (≈ 2.36 µM).

The same test, now with this note: trypomastigotes in rat skeletal myoblasts (L-6 cells), 96 h incubation, CPRG/Nonidet read at 540 nm.
Take `CC(C)[C@H]1CC[C@H](n2c(=O)[nH]c3ccc(N)cc3c2=O)CC1` [25 (trans), 6-Amino-3-((1 r,4r)-4-isopropylcyclohexyl)quinazoline-2,4(1H,3H)-dione]: the “Activity (IC50)” value came out at 0.008 µg/mL.

(Values after patent US20170114029A1, “TREATMENT OF CHAGAS DISEASE” (UNIVERSITY OF DUNDEE, priority 2014, published 2017).)
